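Test compounds were applied to cells in 96-well plates for 48 hours at 5 doses. TGI marks complete inhibition of growth.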
Experiments:
Assay in all cases: NCI-60 cell line screen, 48 h
HCC-2998 colon = tested on: HCC-2998 colon
HCT-116 colon = tested on: HCT-116 colon
HOP-62 NSCLC = tested on: HOP-62 NSCLC
K-562 leukemia = tested on: K-562 leukemia
KM12 colon = tested on: KM12 colon
M14 melanoma = tested on: M14 melanoma
MALME-3M melanoma = tested on: MALME-3M melanoma
MDA-MB-435 = tested on: MDA-MB-435
NCI-H460 lung = tested on: NCI-H460 lung
OVCAR-3 ovarian = tested on: OVCAR-3 ovarian
OVCAR-4 ovarian = tested on: OVCAR-4 ovarian
RXF 393 renal = tested on: RXF 393 renal
SF-268 CNS = tested on: SF-268 CNS
SF-295 CNS = tested on: SF-295 CNS
SF-539 CNS = tested on: SF-539 CNS
SK-MEL-5 melanoma = tested on: SK-MEL-5 melanoma
SNB-19 CNS = tested on: SNB-19 CNS
TK-10 renal = tested on: TK-10 renal
UO-31 renal = tested on: UO-31 renal

Structure (SMILES)	TGI (HCC-2998 colon) [µM]	TGI (HCT-116 colon) [µM]	TGI (HOP-62 NSCLC) [µM]	TGI (K-562 leukemia) [µM]	TGI (KM12 colon) [µM]	TGI (M14 melanoma) [µM]	TGI (MALME-3M melanoma) [µM]	TGI (MDA-MB-435) [µM]	TGI (NCI-H460 lung) [µM]	TGI (OVCAR-3 ovarian) [µM]	TGI (OVCAR-4 ovarian) [µM]	TGI (RXF 393 renal) [µM]	TGI (SF-268 CNS) [µM]	TGI (SF-295 CNS) [µM]	TGI (SF-539 CNS) [µM]	TGI (SK-MEL-5 melanoma) [µM]	TGI (SNB-19 CNS) [µM]	TGI (TK-10 renal) [µM]	TGI (UO-31 renal) [µM]
CCN(CC)C(=S)/N=C(\SC(=S)N(CC)CC)c1ccccc1	> 100	20.9	> 83.2	> 100	> 44.1	> 100	> 100	> 100	> 100	> 100	> 100	> 100	> 100	> 100	> 100	> 100	> 100	> 100	> 88.2
O=C(NNC(=S)Nc1ccc(Cl)cc1)C12CC3CC(CC(C3)C1)C2	27	9.26	29.7	> 37.9	> 51.6	26.6	47.4	37.8	24.5	10.6	54.5	48.6	32	26.6	14.3	15.5	> 79.2	70.8	19
COc1ccc(N=C(CS(=O)c2ccc(C)cc2)C(F)(F)F)cc1 (centres undefined)	> 100	> 100		> 100	> 100	> 100	> 100	> 100	> 100	> 100	> 100	> 100		> 100	> 100	> 100	> 100	> 100	> 100
COc1ccc(-c2[nH]c(-c3ccc(OC)cc3)c(-c3ccccn3)c2-c2ccccn2)cc1	46.3	> 100		84.5	> 100	> 100	> 100	> 100	> 100	> 100		> 100	> 100	> 100	> 100	32.2	> 100	> 100	> 100
COc1ccc(OC)c(N=Cc2cc(OC)c(OC)c(OC)c2)c1	> 100	> 100	> 100	> 100	> 100	> 100	> 100	> 76.2	> 100	> 40.3	> 100	> 100	> 100	> 100	> 100	> 100	> 100	> 100	> 100
COc1ccc(C[n+]2cccc(O)c2)cc1	> 100	> 100	> 100	> 100	> 100	> 100	> 100	> 100	> 100	> 100		> 100	> 100	> 100	> 100	> 100	> 100	> 100	> 100
